In patent publication US20080234188A1, “Antimicrobial Peptides” (The Hospital for Sick Children, priority 2001, published 2008):
In brackets after ≈: the same amount, converted by molar mass. Where a SMILES comes first, the peptide text is derived from it.

What was measured:
E. coli UB1005 = type: cell-based, Escherichia coli; details: UB1005
Method in brief: (§1)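 Overnight cultures were diluted in Mueller Hinton broth to 2−7×10^5 CFU/ml and mixed with serially doubled peptides prepared in 0.01% acetic acid with 0.2% BSA. Plates were incubated at 37° C for 18-24 hours, checked again at 40-48 hours, and read by eye and at 600 nm.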

E. faecalis ATCC29212 = type: cell-based, Enterococcus faecalis
Source text: (§2) The bacterial strains used were E. coli C498, E. coli C500, Escherichia coli UB1005 and its antibiotic supersusceptible derivative DC2 (22); a clinical isolate of Staphylococcus epidermidis (C621); coryneform bacterial strain Corynebacterium xerosis (C875); and E. coli ATCC 25922, Staphylococcus aureus ATCC 25923, Enterococcus faecalis ATCC 29212, Bacillus subtilis ATCC 6633 and Pseudomonas aeruginosa ATCC 27853, all from American Type Culture Collection.
(§3) Peptide antibacterial activity was assessed by the method of R. Hancock et al. (Wu & Hancock (1999), J. Biol. Chem., v. 274, pp. 29-35). Test strains of bacteria from Mueller Hinton agar (MHA) plates were inoculated into 5 ml Mueller Hinton Broth (MHB) in tubes and grown overnight at 37° C. on a shaker (180 rpm). Serial dilutions of test peptides (at 10 times the required test concentrations) were made in 0.01% acetic acid, 0.2% BSA, in polypropylene or coated glass tubes as follows: the test peptide was (a) dissolved in distilled water at 20 times the required maximum concentration (enough final volume for all tests to be performed on a given day); (b) diluted into an equal volume of 0.02% acetic acid, 0.4% BSA to give 10 times the required maximum concentration; (c) serial doubling dilutions were performed in 0.01% acetic acid, 0.2% BSA to provide serial dilutions of peptides at 10 times the required test concentrations, e.g., 640, 320, 160, . . . 2.5 μg/ml. (No deleterious effects of long-term storage of peptides in these media have been detected). Overnight bacterial cultures were diluted in MHB to give 2−7×10^5 colony forming units/ml. Bacterial suspension (100 μl) was dispensed in each well; controls without bacteria were maintained in parallel. To each well was added 11 μl of 10× test peptide and plates were incubated at 37° C. for 18-24 hours, and checked again at 40-48 hours. Plates were read visually and at 600 nm in a microplate reader (Molecular Devices).
(§4) A further number of the peptides of the invention were tested for antimicrobial activity against a range of Gram-positive and Gram-negative bacteria by the assay described immediately before Example 1.

E. coli DC2 = assay: Assay of antibacterial activity (MIC), E. coli DC2; type: cell-based, Escherichia coli
Method in brief: as §1

B. subtilis ATCC6633 = type: cell-based, Bacillus subtilis
Source text: as §2, §3, §4

[1] = tested on: C500: E. coli, antibiotic strain; type: cell-based; details: C500: , antibiotic strain
Method in brief: (§5)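 Broth microdilution in Mueller Hinton Broth, 2−7×10^5 CFU/ml, peptides added from 10× stocks serially diluted in 0.01% acetic acid, 0.2% BSA. Incubated at 37° C for 18-24 hours, rechecked at 40-48 hours; growth read visually and at 600 nm.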

[2] = tested on: C498: E. coli, wild type strain; type: cell-based; details: C498: , wild type strain
Method in brief: as §5

P. aeruginosa ATCC27853 = type: cell-based, Pseudomonas aeruginosa
Source text: as §2, §3, §4

Rabbit RBC = type: cell-based
Method in brief: (§6)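 Washed rabbit or human erythrocytes (4% v/v in PBS pH 7.3) incubated with peptide dilutions 1 h at 37° C. Hemoglobin release read at 540 nm in supernatant, relative to PBS control and 0.1% Triton X-100 as 100% lysis; peptides tested at […].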

Human RBC = type: cell-based
Method in brief: as §6

S. aureus ATCC25923 = type: cell-based, Staphylococcus aureus
Source text: as §2, §3, §4

E. coli ATCC25922 = type: cell-based
Source text: as §2, §3, §4

[3] = tested on: Corynebacterium xerosis (C875); type: cell-based
Method in brief: (§7)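 Broth microdilution in Mueller Hinton Broth, inoculum 2−7×10^5 CFU/ml. Peptides serially doubled in 0.01% acetic acid, 0.2% BSA and added at 10× final concentration. Incubation 37° C for 18-24 h, rechecked at 40-48 h; growth read visually and at 600 nm.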

[4] = tested on: Staphylococcus epidermidis (C621); type: cell-based; details: C621
Method in brief: as §7

SMILES: C[C@H](NC(=O)[C@H](C)NC(=O)[C@H](C)NC(=O)[C@H](Cc1ccccc1)NC(=O)[C@H](C)NC(=O)[C@H](C)NC(=O)[C@H](C)NC(=O)[C@H](CCCCN)NC(=O)[C@@H](N)CCCCN)C(=O)N[C@@H](C)C(=O)N[C@@H](C)C(=O)N[C@@H](Cc1ccccc1)C(=O)N[C@@H](C)C(=O)N[C@@H](C)C(=O)N[C@@H](Cc1c[nH]c2ccccc12)C(=O)N[C@@H](C)C(=O)N[C@@H](C)C(=O)N[C@@H](Cc1ccccc1)C(=O)N[C@@H](C)C(=O)N[C@@H](C)C(=O)N[C@@H](C)C(=O)N[C@@H](CCCCN)C(=O)N[C@@H](CCCCN)C(=O)N[C@@H](CCCCN)C(=O)N[C@@H](CCCCN)C(N)=O [Peptide F25] (H-KKAAAFAAAAAFAAWAAFAAAKKKK-NH2; N-terminus assumed)
- MIC E. coli UB1005 (E. coli UB1005): 16 µM (≈ 39.7 µg/mL)
- MIC E. faecalis ATCC29212 (E. faecalis ATCC29212): >32 µM
- MIC E. coli DC2 (E. coli DC2; Table 3, Gram-negative): 4 µM (≈ 9.92 µg/mL)
- MIC E. coli DC2 (E. coli DC2; Table 5A): 4 µM (≈ 9.92 µg/mL)
- MIC B. subtilis ATCC6633 (B. subtilis ATCC6633): 1 µM (≈ 2.48 µg/mL)
- MIC C500 [1]: 4 µM (≈ 9.92 µg/mL)
- MIC C498 [2]: 8 µM (≈ 19.8 µg/mL)
- MIC P. aeruginosa ATCC27853 (P. aeruginosa ATCC27853): 8 µM (≈ 19.8 µg/mL)
- Rabbit RBC (% lysis) 50 μM (Rabbit RBC): 0 % lysis
- Rabbit RBC (% lysis) 200 μM (Rabbit RBC): 4 % lysis
- Human RBC (% lysis) 50 μM (Human RBC): 0 % lysis
- Human RBC (% lysis) 200 μM (Human RBC): 1 % lysis
- MIC S. aureus ATCC25923 (S. aureus ATCC25923): >32 µM
- MIC E. coli ATCC25922 (E. coli ATCC25922): >32 µM
- MIC C875 [3]: 0.25 µM (≈ 0.62 µg/mL)
- MIC C. xerosis C875 [3]: <0.25 µM
- MIC C621 [4]: 0.5 to 2 µM
- MIC S. epidermidis C621 [4]: 2 µM (≈ 4.96 µg/mL)
